Holding throughout (type): in vivo
Assay [1] deals with velvetleaf (Abutilon theophrasti MEDIC.). Nature of the assay: Foliar treatment pot test, visual growth inhibition rate, velvetleaf (AT). The text has this: (§1) When the herbicidal activity in a case where two active ingredients are combined, is larger than the simple sum of the respective herbicidal activities of the two active ingredients (the expected activity), it is called a synergistic effect. The activity expected by the combination of two active ingredients can be calculated as follows (Colby S. R., “Weed”, vol. 15, p. 20-22, 1967). E=α+β−(α×β÷100) where
(§2) Upland field soil was put into a 1/1,000,000 hectare pot, and seeds of various plants (barnyardgrass (Echinochloa crus-qalli L.), crabgrass (Digitaria sanguinalis L.), giant foxtail (Setaria faberi Herrm.), velvetleaf (Abutilon theophrasti MEDIC.) and prickly sida (Sida spinosa L.)) were sown. When the respective plants reached predetermined leaf stage, herbicidal compositions in predetermined amounts were diluted with water in an amount corresponding to 300 L/ha and applied for foliar treatment by a small sprayer.
(§3) Further, in accordance with the above Colby's formula, the growth inhibition rate (calculated value) was calculated. In Tables, with respect to the compound Q, Compound Nos. in Table 1 are described, and with respect to other herbicidal compounds, common names are described. Further, in Tables, barnyardgrass is represented by “EC”, crabgrass by “DS”, giant foxtail by “SF”, velvetleaf by “AT”, and prickly sida by “SS”.

Assay [2] deals with crabgrass (Digitaria sanguinalis L.). Nature of the assay: Foliar treatment pot test, visual growth inhibition rate, crabgrass (DS). Conditions: for inhibition at […]: 2.5 g/ha.
Text: as §1, §2, §3

For assay [3], the system named is prickly sida (Sida spinosa L.). As to the kind of experiment: Foliar treatment pot test, visual growth inhibition rate, prickly sida (SS). The note with it: 3.0-3.3 leaf stage.
Text: as §1, §2, §3

The mark [4] stands for this setting: Abutilon theophrasti, foliar, 528 h, 4.5-5.0 leaf stage, 22 DAT, read-out: Growth inhibition rate (%) of AT Measured value.
Setting [5] is: Digitaria sanguinalis, foliar, 504 h, 4.0-5.1 leaf stage, 21 DAT, read-out: Growth inhibition rate (%) of DS Measured value.

Read-outs that look alike come from different tables or passages of the source.

The values that follow come from US8492310B2, “Herbicidal compositions containing benzoylpyrazole compounds” (priority 2008, dated 2013).

For the compound `CCc1cccc(C)c1N(C(=O)CCl)[C@@H](C)COC` [S-Metolachlor, S-metolachlor], the “Growth inhibition rate (%) of AT Measured value” in assay [1] (3.0-3.5 leaf stage, 21 DAT, 300 g/ha) is given as 0%; in assay [1] (3.0-3.8 leaf stage, 21 DAT, 400 g/ha) it was 0%; in assay [1] (3.0-4.0 leaf stage, 14 DAT, 150 g/ha) it was 0%; in assay [1] (4.6-5.3 leaf stage, 14 DAT, 1200 g/ha) it was 0%. Also, the “Growth inhibition rate (%) of DS Measured value” is on record as 0% in assay [2] (3.5-4.3 leaf stage, 21 DAT, 400 g/ha); 0% in assay [2] (4.0-5.0 leaf stage, 14 DAT, 150 g/ha); 0% in assay [2] (4.0-5.1 leaf stage, 21 DAT, 300 g/ha); 0% in assay [2] (5.0-6.0 leaf stage, 14 DAT, 800 g/ha). Further, the “Growth inhibition rate (%) of SS Measured value” in assay [3] (21 DAT, 800 g/ha) is listed as 20%.
Regarding `CCOCN(C(=O)CCl)c1c(C)cccc1CC` [Acetochlor, acetochlor], the inhibition at 63 g/ha in assay [1] (Abutilon theophrasti, foliar, 168 h, 2.3-3.5 leaf stage, 7 DAT, 63 g/ha, read-out: Growth inhibition rate (%) of AT Measured value) came to 0%; in assay [2] (Digitaria sanguinalis, foliar, 168 h, 3.5-5.0 leaf stage, 7 DAT, 63 g/ha, read-out: Growth inhibition rate (%) of DS Measured value), 0%. In addition, the inhibition at 125 g/ha is 0% in assay [1] (Abutilon theophrasti, foliar, 168 h, 2.3-3.5 leaf stage, 7 DAT, 125 g/ha, read-out: Growth inhibition rate (%) of AT Measured value) and 0% in assay [2] (Digitaria sanguinalis, foliar, 168 h, 3.5-5.0 leaf stage, 7 DAT, 125 g/ha, read-out: Growth inhibition rate (%) of DS Measured value). In addition, the inhibition at 250 g/ha in assay [1] (Abutilon theophrasti, foliar, 168 h, 2.3-3.5 leaf stage, 7 DAT, read-out: Growth inhibition rate (%) of AT Measured value) worked out at 0%; in assay [2] (Digitaria sanguinalis, foliar, 168 h, 3.5-5.0 leaf stage, 7 DAT, read-out: Growth inhibition rate (%) of DS Measured value) it was 0%. Moreover, the inhibition at 500 g/ha in assay [1] (Abutilon theophrasti, foliar, 168 h, 2.3-3.5 leaf stage, 7 DAT, 500 g/ha, read-out: Growth inhibition rate (%) of AT Measured value) was 10%; in assay [2] (Digitaria sanguinalis, foliar, 168 h, 3.5-5.0 leaf stage, 7 DAT, 500 g/ha, read-out: Growth inhibition rate (%) of DS Measured value) it was 0%. Moreover, the inhibition at 750 g/ha in assay [1] (Abutilon theophrasti, foliar, 168 h, 2.3-3.5 leaf stage, 7 DAT, 750 g/ha, read-out: Growth inhibition rate (%) of AT Measured value) came to 0%; in assay [2] (Digitaria sanguinalis, foliar, 168 h, 3.5-5.0 leaf stage, 7 DAT, 750 g/ha, read-out: Growth inhibition rate (%) of DS Measured value), 10%. In addition, the inhibition at 150 g/ha in assay [1] (Abutilon theophrasti, foliar, 336 h, 3.0-4.0 leaf stage, 14 DAT, 150 g/ha, read-out: Growth inhibition rate (%) of AT Measured value) was found to be 0%; in assay [2] (Digitaria sanguinalis, foliar, 336 h, 4.0-5.0 leaf stage, 14 DAT, 150 g/ha, read-out: Growth inhibition rate (%) of DS Measured value), 0%; in assay [2] (Digitaria sanguinalis, foliar, 504 h, 4.0-5.1 leaf stage, 21 DAT, 150 g/ha, read-out: Growth inhibition rate (%) of DS Measured value) it was 0%. For the same compound, in assay [1] (Abutilon theophrasti, foliar, 480 h, 3.1-3.4 leaf stage, 20 DAT, 300 g/ha, read-out: Growth inhibition rate (%) of AT Measured value), the inhibition at 300 g/ha was determined as 0%. Moreover, the inhibition at 400 g/ha in assay [1] (Abutilon theophrasti, foliar, 504 h, 3.0-3.8 leaf stage, 21 DAT, 400 g/ha, read-out: Growth inhibition rate (%) of AT Measured value) turned out to be 0%; in assay [2] (Digitaria sanguinalis, foliar, 504 h, 3.5-4.3 leaf stage, 21 DAT, 400 g/ha, read-out: Growth inhibition rate (%) of DS Measured value) it was 0%; in assay [3] (Sida spinosa, foliar, 336 h, 14 DAT, 400 g/ha, read-out: Growth inhibition rate (%) of SS Measured value) it was 10%. In addition, the inhibition at 100 g/ha in assay [3] (Sida spinosa, foliar, 336 h, 14 DAT, 100 g/ha, read-out: Growth inhibition rate (%) of SS Measured value) was 0%. Further, in assay [3] (Sida spinosa, foliar, 336 h, 14 DAT, 200 g/ha, read-out: Growth inhibition rate (%) of SS Measured value), the inhibition at 200 g/ha came to 0%. Further, the inhibition at 800 g/ha in assay [3] (Sida spinosa, foliar, 336 h, 14 DAT, 800 g/ha, read-out: Growth inhibition rate (%) of SS Measured value) stood at 30%.
On to `CCOCCN(C(=O)CCl)C(=C(C)C)c1ccccc1` [Pethoxamid, pethoxamid], for which the “Growth inhibition rate (%) of AT Measured value” in assay [1] (3.3-4.2 leaf stage, 13 DAT, 200 g/ha) is reported as 0%. For the same compound, the “Growth inhibition rate (%) of DS Measured value” in assay [2] (3.6-3.8 leaf stage, 20 DAT, 100 g/ha) is 0%; in assay [2] (3.6-3.8 leaf stage, 20 DAT, 200 g/ha) it was 0%; in assay [2] (3.6-3.8 leaf stage, 20 DAT, 400 g/ha), 0%; in assay [2] (4.4-5.0 leaf stage, 13 DAT, 200 g/ha) it was 0%.
For the compound `COc1nc(C)nc(NC(=O)NS(=O)(=O)c2ccccc2CCC(F)(F)F)n1` [Prosulfuron, prosulfuron], the inhibition at 10 g/ha in assay [1] (Abutilon theophrasti, foliar, 504 h, 3.0-3.5 leaf stage, 21 DAT, read-out: Growth inhibition rate (%) of AT Measured value) was found to be 100%; in assay [1] (setting [4]), 0%; in assay [2] (Digitaria sanguinalis, foliar, 552 h, 4.0-5.1 leaf stage, 23 DAT, 10 g/ha, read-out: Growth inhibition rate (%) of DS Measured value), 0%. Also, the inhibition at 1.25 g/ha is 50% in assay [1] (Abutilon theophrasti, foliar, 504 h, 4.0-4.3 leaf stage, 21 DAT, 1.25 g/ha, read-out: Growth inhibition rate (%) of AT Measured value) and 10% in assay [2] (Digitaria sanguinalis, foliar, 504 h, 4.0-5.1 leaf stage, 21 DAT, 1.25 g/ha, read-out: Growth inhibition rate (%) of DS Measured value). The inhibition at 5 g/ha in assay [1] (Abutilon theophrasti, foliar, 504 h, 4.0-4.3 leaf stage, 21 DAT, read-out: Growth inhibition rate (%) of AT Measured value) was 95%; in assay [1] (Abutilon theophrasti, foliar, 528 h, 4.1-4.5 leaf stage, 22 DAT, read-out: Growth inhibition rate (%) of AT Measured value), 90%; in assay [1] (setting [4]), 0%; in assay [2] (setting [5]) it was 0%; in assay [2] (Digitaria sanguinalis, foliar, 528 h, 4.0-5.0 leaf stage, 22 DAT, read-out: Growth inhibition rate (%) of DS Measured value), 0%. Besides, the inhibition at […] in assay [2] (setting [5]) is 5%; in assay [2] (Digitaria sanguinalis, foliar, 528 h, 4.8-5.5 leaf stage, 22 DAT, read-out: Growth inhibition rate (%) of DS Measured value), 0%.
As for `CCS(=O)(=O)c1cccnc1S(=O)(=O)NC(=O)Nc1nc(OC)cc(OC)n1` [Rimsulfuron, rimsulfuron], the inhibition at 20 g/ha in assay [1] (Abutilon theophrasti, foliar, 504 h, 3.5-4.3 leaf stage, 21 DAT, 20 g/ha, read-out: Growth inhibition rate (%) of AT Measured value) was found to be 99%. Moreover, the inhibition at 15 g/ha stood at 70% in assay [1] (Abutilon theophrasti, foliar, 552 h, 3.0-3.5 leaf stage, 23 DAT, 15 g/ha, read-out: Growth inhibition rate (%) of AT Measured value) and 98% in assay [2] (Digitaria sanguinalis, foliar, 552 h, 4.0-5.1 leaf stage, 23 DAT, 15 g/ha, read-out: Growth inhibition rate (%) of DS Measured value).
`CP(=O)(O)CCC(N)C(=O)O` (stereo not shown) [Glufosinate-ammonium, glufosinate-ammonium]: the inhibition at 200 g/ha in assay [1] (Abutilon theophrasti, foliar, 528 h, read-out: Growth inhibition rate (%) of AT Measured value, 4.1-4.5 leaf stage, 22 DAT, 200 g/ha) was determined as 10%; in assay [1] (Abutilon theophrasti, foliar, 576 h, read-out: Growth inhibition rate (%) of AT Measured value, 3.2-4.1 leaf stage, 24 DAT, 200 g/ha), 30%. For the same compound, in assay [2] (Digitaria sanguinalis, foliar, 528 h, read-out: Growth inhibition rate (%) of DS Measured value, 4.0-5.0 leaf stage, 22 DAT, 100 g/ha), the inhibition at 100 g/ha is 0%.
Turning to `CON(C)C(=O)Nc1ccc(Cl)c(Cl)c1` [Linuron, linuron], the inhibition at 250 g/ha in assay [1] (Abutilon theophrasti, foliar, 336 h, 3.5-4.3 leaf stage, 14 DAT, read-out: Growth inhibition rate (%) of AT Measured value) stood at 85%; in assay [1] (Abutilon theophrasti, foliar, 576 h, 3.2-4.1 leaf stage, 24 DAT, read-out: Growth inhibition rate (%) of AT Measured value), 40%; in assay [2] (Digitaria sanguinalis, foliar, 336 h, 5.0-5.5 leaf stage, 14 DAT, read-out: Growth inhibition rate (%) of DS Measured value), 30%.
